pIC50: −log10 of the molar value.
molecular target: T1, human LMPTP-A (Homo sapiens, UniProt P24666); assay: Enzyme Assay of Inhibition of LMPTP-A; format: biochemical; details: phosphatase assay, OMFP or pNPP substrate, 50 mM Bis-Tris pH 6.0, 37° C.
T1 sequence (P24666 1-158): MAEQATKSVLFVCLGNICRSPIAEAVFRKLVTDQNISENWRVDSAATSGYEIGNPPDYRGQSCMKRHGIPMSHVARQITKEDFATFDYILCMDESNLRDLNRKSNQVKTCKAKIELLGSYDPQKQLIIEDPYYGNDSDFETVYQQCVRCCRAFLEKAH
Experimental: Phosphatase assays were performed in buffer containing 50 mM Bis-Tris, pH 6.0, 1 mM DTT and 0.01% Triton X-100 at 37° C. For assays conducted with 3-O-methylfluorescein phosphate (OMFP) as substrate, fluorescence was monitored continuously at λex=485 and λem=525 nm. For assays conducted with para-nitrophenylphosphate (pNPP) as substrate, the reaction was stopped by addition of 2× reaction volume of 1 M NaOH, and absorbance was measured at 405 nm. IC50 values of compounds disclosed herein were determined from plots of inhibitor concentration versus percentage of enzyme activity. For inhibitor selectivity assays, each PTP was incubated with either 0.4 mM OMFP or 5 mM pNPP in the presence of 40 μM compound or DMSO. […] For the inhibitor reversibility assay, 50 nM human LMPTP-A was pre-incubated with 10 μM of compound disclosed herein or DMSO for 5 min. The enzyme was diluted 100× in phosphatase assay buffer containing 0.4 mM OMFP and fluorescence was measured at the indicated time points.

`Nc1ncn(Cc2c(F)cccc2F)c2ncnc1-2` and “3-[(2,6-dichlorophenyl)methyl]-8-[(4-chlorophenyl)methyl]-3-hydropurine-6-ylamine” cannot be ordered by pIC50: 4.70 to 6.00 for the first, at least 6.00 for the second.

“8-[(1E)-2-(4-fluorophenyl)vinyl]-3-[(2,6-dichlorophenyl)methyl]-3-hydropurine-6-ylamine” and `CC(=O)c1ccc(Nc2ncn(Cc3c(Cl)cccc3Cl)c3ncnc2-3)cc1` [1-Acetyl-4-({3-[(2,6-dichlorophenyl)methyl](3-hydropurin-6-yl)}amino)benzene] cannot be ordered by pIC50: at least 6.00 for the first, 4.70 to 6.00 for the second.

First: COC(=O)c1cccc(Cl)c1Cn1cnc(N)c2ncnc1-2 [2-(6-Amino-purin-3-ylmethyl)-3-chloro-benzoic acid methyl ester]
Second: N#Cc1ccccc1Cn1cnc(NCc2ccco2)c2ncnc1-2 [2-((6-((Furan-2-ylmethyl)amino)-3H-purin-3-yl)methyl)benzonitrile]
The pIC50 of the first is higher: at least 6.00 for the first, at most 4.70 for the second. The first is the more potent here.

`NC(=O)c1cccc(Cl)c1Cn1cnc(N)c2ncnc1-2` [2-((6-amino-3H-purin-3-yl)methyl)-3-chlorobenzamide] and `Nc1ncn(Cc2c(Cl)cccc2C(=O)O)c2ncnc1-2` [2-((6-amino-3H-purin-3-yl)methyl)-3-chlorobenzoic acid] cannot be ordered by pIC50: at least 6.00 for the first, 4.70 to 6.00 for the second.

`N#Cc1cccc(Cl)c1Cn1cnc(N)c2ncnc1-2` [2-((6-amino-3H-purin-3-yl)methyl)-3-chlorobenzonitrile] and `Oc1ccccc1Nc1ncn(Cc2c(Cl)cccc2Cl)c2ncnc1-2` [2-({3-[(2,6-Dichlorophenyl)methyl]-3-hydropurin-6-yl}amino)phenol] cannot be ordered by pIC50: at least 6.00 for the first, 4.70 to 6.00 for the second.

`OCCNc1ncn(Cc2c(Cl)cccc2Cl)c2ncnc1-2` [2-[3-(2,6-Dichloro-benzyl)-3H-purin-6-ylamino]-ethanol] and `N#Cc1ccccc1-c1nc2c(N)ncn(Cc3c(Cl)cccc3Cl)c-2n1` [2-{6-Amino-3-[(2,6-dichlorophenyl)methyl]-3-hydropurin-8-yl}benzenecarbonitrile] cannot be ordered by pIC50: 4.70 to 6.00 for the first, at least 6.00 for the second.

`Nc1ncn(Cc2c(F)ccc(F)c2F)c2ncnc1-2` [3-(2,3,6-Trifluoro-benzyl)-3H-purin-6-ylamine] and `Nc1ncn(Cc2cccc(Cl)c2Cl)c2ncnc1-2` [3-(2,3-Dichloro-benzyl)-3H-purin-6-ylamine] fall in the same range of pIC50: 4.70 to 6.00 for the first, 4.70 to 6.00 for the second.

`Clc1cccc(Cn2cnc(NCc3ccco3)c3ncnc2-3)c1Cl` [3-(2,3-dichlorobenzyl)-N-(furan-2-ylmethyl)-3H-purin-6-amine] and `Nc1ncn(Cc2ccc(Cl)cc2Cl)c2ncnc1-2` [3-(2,4-Dichloro-benzyl)-3H-purin-6-ylamine] fall in the same range of pIC50: 4.70 to 6.00 for the first, 4.70 to 6.00 for the second.

`Nc1ncn(Cc2ccc(F)cc2F)c2ncnc1-2` [3-(2,4-difluorobenzyl)-3H-purin-6-amine] and `Nc1ncn(Cc2cc(Cl)ccc2Cl)c2ncnc1-2` [3-(2,5-Dichloro-benzyl)-3H-purin-6-ylamine] fall in the same range of pIC50: 4.70 to 6.00 for the first, 4.70 to 6.00 for the second.

`Clc1cccc(Cl)c1Cn1cnc(N2CCOCC2)c2ncnc1-2` [3-(2,6-Dichloro-benzyl)-6-morpholin-4-yl-3H-purine] and `Clc1cccc(Cl)c1Cn1cnc(N2CCCCC2)c2ncnc1-2` [3-(2,6-Dichloro-benzyl)-6-piperidin-1-yl-3H-purine] cannot be ordered by pIC50: at most 4.70 for the first, at most 4.70 for the second.

Going from `Clc1cccc(Cl)c1Cn1cnc(N2CCCC2)c2ncnc1-2` [3-(2,6-Dichloro-benzyl)-6-pyrrolidin-1-yl-3H-purine] to `Nc1ncn(Cc2c(Cl)cccc2Cl)c2nc(C3=CCNCC3)nc1-2` [3-(2,6-Dichloro-benzyl)-8-(1,2,3,6-tetrahydro-pyridin-4-yl)-3H-purin-6-ylamine], the pIC50 rises from at most 4.70 to at least 6.00.

`FC(F)(F)Oc1cccc(Nc2ncn(Cc3c(Cl)cccc3Cl)c3ncnc2-3)c1` [3-(2,6-Dichlorobenzyl)-N-(3-(trifluoromethoxy)phenyl)-3H-purin-6-amine] and `FC(F)Oc1ccc(Nc2ncn(Cc3c(Cl)cccc3Cl)c3ncnc2-3)cc1` [3-(2,6-Dichlorobenzyl)-N-(4-(difluoromethoxy)phenyl)-3H-purin-6-amine] fall in the same range of pIC50: 4.70 to 6.00 for the first, 4.70 to 6.00 for the second.

`COc1ccc(Nc2ncn(Cc3c(Cl)cccc3Cl)c3ncnc2-3)cc1` [3-(2,6-Dichlorobenzyl)-N-(4-methoxyphenyl)-3H-purin-6-amine] and `Cc1cccc(C)c1Cn1cnc(NCc2ccco2)c2ncnc1-2` [3-(2,6-Dimethylbenzyl)-n-(furan-2-ylmethyl)-3h-purin-6-amine] fall in the same range of pIC50: 4.70 to 6.00 for the first, 4.70 to 6.00 for the second.

`Nc1ncn(Cc2c(Br)cccc2Br)c2ncnc1-2` [3-(2,6-dibromobenzyl)-3H-purin-6-amine] and `Cc1noc(C)c1-c1nc2c(N)ncn(Cc3c(Cl)cccc3Cl)c-2n1` [3-(2,6-dichlorobenzyl)-8-(3,5-dimethylisoxazol-4-yl)-3H-purin-6-amine] cannot be ordered by pIC50: at least 6.00 for the first, at least 6.00 for the second.

`Nc1ncn(Cc2c(Cl)cccc2Cl)c2nc(C3=CCOCC3)nc1-2` [3-(2,6-dichlorobenzyl)-8-(3,6-dihydro-2H-pyran-4-yl)-3H-purin-6-amine] and `COc1ccc(CNc2ncn(Cc3c(Cl)cccc3Cl)c3ncnc2-3)c(OC)c1` [3-(2,6-dichlorobenzyl)-N-(2,4-dimethoxybenzyl)-3H-purin-6-amine] cannot be ordered by pIC50: at least 6.00 for the first, 4.70 to 6.00 for the second.

`FC(F)Oc1ccccc1Nc1ncn(Cc2c(Cl)cccc2Cl)c2ncnc1-2` [3-(2,6-dichlorobenzyl)-N-(2-(difluoromethoxy)plienyl)-3H-purin-6-amine] and `FC(F)Oc1cccc(Nc2ncn(Cc3c(Cl)cccc3Cl)c3ncnc2-3)c1` [3-(2,6-dichlorobenzyl)-N-(3-(difluoromethoxy)phenyl)-3H-purin-6-amine] fall in the same range of pIC50: 4.70 to 6.00 for the first, 4.70 to 6.00 for the second.

`FC(F)(F)c1cccc(Nc2ncn(Cc3c(Cl)cccc3Cl)c3ncnc2-3)c1` [3-(2,6-dichlorobenzyl)-N-(3-(trifluoromethyl)phenyl)-3H-purin-6-amine] and `FC(F)(F)c1ccc(Nc2ncn(Cc3c(Cl)cccc3Cl)c3ncnc2-3)cc1` [3-(2,6-dichlorobenzyl)-N-(4-(trifluoromethyl)phenyl)-3H-purin-6-amine] fall in the same range of pIC50: 4.70 to 6.00 for the first, 4.70 to 6.00 for the second.

`Cc1cccc(C)c1Cn1cnc(N)c2ncnc1-2` [3-(2,6-dimethylbenzyl)-3H-purin-6-amine] and `Nc1cccc(Cl)c1Cn1cnc(N)c2ncnc1-2` [3-(2-Amino-6-chlorobenzyl)-3H-purin-6-amine] fall in the same range of pIC50: 4.70 to 6.00 for the first, 4.70 to 6.00 for the second.

`Nc1ncn(Cc2ccccc2Br)c2ncnc1-2` [3-(2-Bromo-benzyl)-3H-purin-6-ylamine] and `Nc1ncn(Cc2c(F)cccc2Cl)c2ncnc1-2` [3-(2-Chloro-6-fluoro-benzyl)-3H-purin-6-ylamine] cannot be ordered by pIC50: 4.70 to 6.00 for the first, at least 6.00 for the second.

`Nc1ncn(Cc2c(Cl)cccc2I)c2ncnc1-2` [3-(2-Chloro-6-iodo-benzyl)-3H-purin-6-ylamine] and `Nc1ncn(Cc2c(Cl)cccc2[N+](=O)[O-])c2ncnc1-2` [3-(2-Chloro-6-nitrobenzyl)-3H-purin-6-amine] cannot be ordered by pIC50: at least 6.00 for the first, at least 6.00 for the second.

`Nc1ncn(Cc2ccccc2Cl)c2ncnc1-2` [3-(2-Chloro-benzyl)-3H-purin-6-ylamine] and `Nc1ncn(Cc2c(F)cccc2I)c2ncnc1-2` [3-(2-Fluoro-6-iodo-benzyl)-3H-purin-6-ylamine] cannot be ordered by pIC50: 4.70 to 6.00 for the first, at least 6.00 for the second.

`Nc1ncn(Cc2ccccc2F)c2ncnc1-2` [3-(2-Fluoro-benzyl)-3H-purin-6-ylamine] and `Cc1ccccc1Cn1cnc(N)c2ncnc1-2` [3-(2-Methyl-benzyl)-3H-purin-6-ylamine] fall in the same range of pIC50: 4.70 to 6.00 for the first, 4.70 to 6.00 for the second.

`Nc1ncn(Cc2c(Cl)cccc2Br)c2ncnc1-2` [3-(2-bromo-6-chlorobenzyl)-3H-purin-6-amine] and `COc1cccc(Cl)c1Cn1cnc(N)c2ncnc1-2` [3-(2-chloro-6-methoxybenzyl)-3H-purin-6-amine] cannot be ordered by pIC50: at least 6.00 for the first, 4.70 to 6.00 for the second.

`Cc1cccc(Cl)c1Cn1cnc(N)c2ncnc1-2` [3-(2-chloro-6-methylbenzyl)-3H-purin-6-amine] and `Nc1ncn(Cc2cccc(F)c2)c2ncnc1-2` [3-(3-Fluoro-benzyl)-3H-purin-6-ylamine] cannot be ordered by pIC50: at least 6.00 for the first, 4.70 to 6.00 for the second.

`Nc1ncn(Cc2cccc(Cl)c2)c2ncnc1-2` [3-(3-chlorobenzyl)-3H-purin-6-amine] and `Nc1ncn(Cc2ccc(C(F)(F)F)cc2)c2ncnc1-2` [3-(4-(trifluoromethyl)benzyl)-3H-purin-6-amine] cannot be ordered by pIC50: at most 4.70 for the first, 4.70 to 6.00 for the second.

`Nc1ncn(Cc2ccc(Br)cc2)c2ncnc1-2` [3-(4-Bromo-benzyl)-3H-purin-6-ylamine] and `Nc1ncn(Cc2ccc(Cl)cc2)c2ncnc1-2` [3-(4-Chloro-benzyl)-3H-purin-6-ylamine] cannot be ordered by pIC50: 4.70 to 6.00 for the first, at most 4.70 for the second.

`COc1ccc(Cn2cnc(N)c3ncnc2-3)cc1` [3-(4-Methoxy-benzyl)-3H-purin-6-ylamine] and `Cc1ccc(Cn2cnc(N)c3ncnc2-3)cc1` [3-(4-Methyl-benzyl)-3H-purin-6-ylamine] cannot be ordered by pIC50: 4.70 to 6.00 for the first, at most 4.70 for the second.

`Nc1ncn(Cc2ccc(F)cc2)c2ncnc1-2` [3-(4-fluorobenzyl)-3H-purin-6-amine] and `Nc1ncn(Cc2cccc(O)c2)c2ncnc1-2` [3-(6-Amino-purin-3-ylmethyl)-phenol] cannot be ordered by pIC50: at most 4.70 for the first, 4.70 to 6.00 for the second.

`Cc1cccc(Cn2cnc(N)c3ncnc2-3)n1` [3-(6-Methyl-pyridin-2-ylmethyl)-3H-purin-6-ylamine] and `Cn1ccnc1Cn1cnc(N)c2ncnc1-2` [3-((1-methyl-1H-imidazol-2-yl)methyl)-3H-purin-6-amine] cannot be ordered by pIC50: at most 4.70 for the first, at most 4.70 for the second.

— patent publication US20200338084A1, “INHIBITORS OF LOW MOLECULAR WEIGHT PROTEIN TYROSINE PHOSPHATASE (LMPTP) AND USES THEREOF” (Sanford Burnham Prebys Medical Discovery Institute, priority 2018, published 2020)
